This note sets out measurements from patent US9801925B2, “Potentiation of glucose elimination” (MannKind Corporation, priority 1999, dated 2017).

Each structure is given as a SMILES string.

The nature of the data set: Excretion of FDKP after pulmonary administration of Technosphere particles. It counts as in vivo. An excerpt:
Technosphere® refers to a diketopiperazine-based drug delivery system which can complex and stabilize peptides in small particles. Diketopiperazines, particularly fumaryl diketopiperazine (FDKP), self-assemble into microparticles with a mean diameter of about 2 microns. In the process it can entrap or complex with peptides, such as insulin, present in the solution during or after self-assembly. Once dried, these microparticles become a suitable composition for pulmonary delivery to the systemic circulation. When administered by the pulmonary route, Technosphere® particles dissolve in the pH neutral environment of the deep lung and facilitate the rapid and efficient absorption of the peptide into systemic circulation.

In the case of `O=C(O)/C=C/C(=O)NCCCCC1NC(=O)C(CCCCNC(=O)/C=C/C(=O)O)NC1=O` (stereo not shown) [FDKP, 3,6-di(fumaryl-4-aminobutyl)-2,5-diketopiperazine], the excretion result is recorded as “excreted un-metabolized in the urine within hours of administration”.
